Test results as given in PubChem BioAssay AID256 (DTP/NCI, 2004).
Inconclusive results and toxic doses are left out. How the source made its calls: active means survival T/C of 150% or more; inactive means T/C below 125% in these data.

Tested on: CD2F1 mice, L1210 leukemia ip, survival T/C
Assay: NCI In Vivo Anticancer Drug Screen. Data for tumor model L1210 Leukemia (intraperitoneal) in CD2F1 (CDF1) mice
Conditions: higher = longer survival
In short: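 Mice carrying a transplanted tumor received test compound or vehicle alone. The value is the measurement in the treated group divided by that in the vehicle-treated control group.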

[1] = endpoint: mean survival time, dose: 100.0 mg/kg/injection, schedule: Q01DX001 (ip), vehicle: saline with Tween-80
[2] = endpoint: mean survival time, dose: 200.0 mg/kg/injection, schedule: Q01DX001 (ip), vehicle: saline with Tween-80
[3] = endpoint: mean survival time, dose: 100.0 mg/kg/injection, schedule: Q01DX009 (ip), vehicle: saline with Tween-80
[4] = endpoint: mean survival time, dose: 400.0 mg/kg/injection, schedule: Q01DX001 (ip), vehicle: saline with Tween-80
[5] = endpoint: mean survival time, dose: 100.0 mg/kg/injection, schedule: Q04DX003 (ip), vehicle: saline with Tween-80
[6] = endpoint: mean survival time, dose: 200.0 mg/kg/injection, schedule: Q04DX003 (ip), vehicle: saline with Tween-80
[7] = endpoint: mean survival time, dose: 400.0 mg/kg/injection, schedule: Q04DX003 (ip), vehicle: saline with Tween-80
[8] = endpoint: mean survival time, dose: 200.0 mg/kg/injection, schedule: Q01DX009 (ip), vehicle: saline with Tween-80
[9] = endpoint: mean survival time, dose: 400.0 mg/kg/injection, schedule: Q01DX009 (ip), vehicle: saline with Tween-80
[10] = endpoint: mean survival time, dose: 12.5 mg/kg/injection, schedule: Q01DX009 (ip), vehicle: saline with Tween-80
[11] = endpoint: mean survival time, dose: 25.0 mg/kg/injection, schedule: Q01DX009 (ip), vehicle: saline with Tween-80
[12] = endpoint: mean survival time, dose: 50.0 mg/kg/injection, schedule: Q01DX009 (ip), vehicle: saline with Tween-80

Measured: T/C

COc1cc(C=O)ccc1OC1OC(C(COC(C)=O)OC(C)=O)C(OC(C)=O)C(OC(C)=O)C1OC(C)=O (stereo not drawn)
inactive: endpoint: mean survival time, dose: 50.0 mg/kg/injection, schedule: Q01DX001 (ip), vehicle: saline with Tween-80 93 % of control | [1] 88 % of control | [2] 88 % of control

O=S(=O)(c1ccc(N2CCOCC2)cc1)c1ccnc2cc(Cl)ccc12
inactive: [1] 93 % of control | [3] 89 % of control | [2] 101 % of control | [4] 87 % of control

Cc1ccc(S(=O)(=O)NC(=S)c2ccccc2)cc1
inactive: [1] 97 % of control | [2] 105 % of control

CC(=O)NC1CC(n2cnc3c(=O)[nH]c(N)nc32)OC1C(C)O (stereo not drawn)
inactive: endpoint: median survival time, dose: 12.5 mg/kg/injection, schedule: Q01DX005 (ip), vehicle: distilled water + Tween-80 101 % of control | endpoint: median survival time, dose: 25.0 mg/kg/injection, schedule: Q01DX005 (ip), vehicle: distilled water + Tween-80 102 % of control | endpoint: median survival time, dose: 50.0 mg/kg/injection, schedule: Q01DX005 (ip), vehicle: distilled water + Tween-80 100 % of control | endpoint: median survival time, dose: 100.0 mg/kg/injection, schedule: Q01DX005 (ip), vehicle: distilled water + Tween-80 89 % of control

OC1CCCCCCCCC1Cl (stereo not drawn)
inactive: [3] 88 % of control | [5] 94 % of control | [6] 93 % of control | [7] 96 % of control

Nc1cccc(S(=O)(=O)NNc2cc(Cl)ccc2Cl)c1
inactive: [5] 102 % of control | [6] 96 % of control | [7] 95 % of control

C1=CC2OC1c1cc3ccccc3cc12
inactive: endpoint: mean survival time, dose: 100.0 mg/kg/injection, schedule: Q04DX003 (ip), vehicle: other 121 % of control | endpoint: mean survival time, dose: 200.0 mg/kg/injection, schedule: Q04DX003 (ip), vehicle: other 105 % of control

Cc1ccc(S(=O)(=O)OC(c2ccc(Cl)cc2)C(F)(F)F)cc1 (stereo not drawn)
inactive: [1] 101 % of control | [3] 93 % of control | [2] 95 % of control | [8] 86 % of control | [4] 101 % of control | [9] 87 % of control

COc1cc2c(cc1OC)CCN=C2
inactive: endpoint: mean survival time, dose: 50.0 mg/kg/injection, schedule: Q01DX009 (ip), vehicle: saline 106 % of control | endpoint: mean survival time, dose: 100.0 mg/kg/injection, schedule: Q01DX009 (ip), vehicle: saline 92 % of control

COc1cc(CNC(=O)/C(C)=C/Cl)ccc1O
inactive: [10] 96 % of control | [11] 95 % of control | [12] 101 % of control

O=c1[nH]c(=S)c(SCc2ccccc2)nn1C1OC(CO)C(O)C1O (stereo not drawn)
inactive: endpoint: mean survival time, dose: 12.5 mg/kg/injection, schedule: Q01DX005 (ip), vehicle: distilled water + Tween-80 95 % of control | endpoint: mean survival time, dose: 25.0 mg/kg/injection, schedule: Q01DX005 (ip), vehicle: distilled water + Tween-80 97 % of control | endpoint: mean survival time, dose: 50.0 mg/kg/injection, schedule: Q01DX005 (ip), vehicle: distilled water + Tween-80 100 % of control | endpoint: mean survival time, dose: 100.0 mg/kg/injection, schedule: Q01DX005 (ip), vehicle: distilled water + Tween-80 95 % of control | endpoint: mean survival time, dose: 200.0 mg/kg/injection, schedule: Q01DX005 (ip), vehicle: distilled water + Tween-80 94 % of control

CCCCN(CCCC)C(=O)Nc1ccccc1
inactive: endpoint: mean survival time, dose: 100.0 mg/kg/injection, schedule: Q01DX001 (ip), vehicle: saline 100 % of control | endpoint: mean survival time, dose: 200.0 mg/kg/injection, schedule: Q01DX001 (ip), vehicle: saline 100 % of control | endpoint: mean survival time, dose: 400.0 mg/kg/injection, schedule: Q01DX001 (ip), vehicle: saline 98 % of control

COC(=O)CCC1c2[nH]c3ccccc3c2CCN1C (stereo not drawn)
inactive: [5] 93 % of control | [6] 102 % of control | [7] 102 % of control

O=C1C=C(O)c2ccccc2C1=O.[Ag]
inactive: endpoint: mean survival time, dose: 12.5 mg/kg/injection, schedule: Q01DX001 (ip), vehicle: saline with Tween-80 97 % of control | endpoint: mean survival time, dose: 25.0 mg/kg/injection, schedule: Q01DX001 (ip), vehicle: saline with Tween-80 93 % of control

O=C(O)C1OC1c1ccccc1 (stereo not drawn)
inactive: [3] 107 % of control | endpoint: mean survival time, dose: 100.0 mg/kg/injection, schedule: Q04DX003 (ip), vehicle: saline 91 % of control | [8] 98 % of control | endpoint: mean survival time, dose: 200.0 mg/kg/injection, schedule: Q04DX003 (ip), vehicle: saline 100 % of control | [9] 101 % of control | endpoint: mean survival time, dose: 400.0 mg/kg/injection, schedule: Q04DX003 (ip), vehicle: saline 97 % of control

O=C(NCCC1CCC2OC2C1)c1ccccc1 (stereo not drawn)
inactive: [3] 96 % of control | [5] 107 % of control | [8] 98 % of control | [6] 100 % of control | [9] 96 % of control | [7] 94 % of control

CCCCC(=O)OCC[N+](C)(C)C
inactive: endpoint: mean survival time, dose: 100.0 mg/kg/injection, schedule: Q04DX002 (ip), vehicle: saline with Tween-80 100 % of control | endpoint: mean survival time, dose: 200.0 mg/kg/injection, schedule: Q04DX002 (ip), vehicle: saline with Tween-80 95 % of control | endpoint: mean survival time, dose: 400.0 mg/kg/injection, schedule: Q04DX002 (ip), vehicle: saline with Tween-80 91 % of control

CC(=O)OC1C(CNC(=O)N(C)N=O)OC(OC2(CNC(=O)N(C)N=O)OC(CNC(=O)N(C)N=O)C(OC(C)=O)C2OC(C)=O)C(OC(C)=O)C1OC(C)=O (stereo not drawn)
inactive: endpoint: mean survival time, dose: 12.5 mg/kg/injection, schedule: Q01DX009 (ip), vehicle: other 93 % of control | endpoint: mean survival time, dose: 25.0 mg/kg/injection, schedule: Q01DX009 (ip), vehicle: other 94 % of control | endpoint: mean survival time, dose: 50.0 mg/kg/injection, schedule: Q01DX009 (ip), vehicle: other 104 % of control | endpoint: mean survival time, dose: 100.0 mg/kg/injection, schedule: Q01DX009 (ip), vehicle: other 102 % of control | endpoint: mean survival time, dose: 200.0 mg/kg/injection, schedule: Q01DX009 (ip), vehicle: other 120 % of control

CCOC(=O)Cn1cnc2cc(C)c(C)cc21
inactive: [3] 101 % of control | [5] 94 % of control | [8] 94 % of control | [6] 100 % of control | [7] 96 % of control

COc1ccc2c(c1)CCC1C2=CC(=O)/C1=C\[O-].COc1ccc2c(c1)CCC1C2=CC(=O)/C1=C\[O-].[Cu+2] (stereo not drawn)
inactive: [10] 92 % of control | endpoint: mean survival time, dose: 12.5 mg/kg/injection, schedule: Q04DX003 (ip), vehicle: saline with Tween-80 93 % of control | [11] 95 % of control | endpoint: mean survival time, dose: 25.0 mg/kg/injection, schedule: Q04DX003 (ip), vehicle: saline with Tween-80 93 % of control | [12] 94 % of control | endpoint: mean survival time, dose: 50.0 mg/kg/injection, schedule: Q04DX003 (ip), vehicle: saline with Tween-80 96 % of control

Cn1c(=O)c2c(nc(-c3ccccc3)n2O)n(C)c1=O
inactive: endpoint: mean survival time, dose: 12.5 mg/kg/injection, schedule: Q01DX005 (ip), vehicle: other 97 % of control | endpoint: mean survival time, dose: 25.0 mg/kg/injection, schedule: Q01DX005 (ip), vehicle: other 105 % of control | endpoint: mean survival time, dose: 50.0 mg/kg/injection, schedule: Q01DX005 (ip), vehicle: other 92 % of control | endpoint: mean survival time, dose: 100.0 mg/kg/injection, schedule: Q01DX005 (ip), vehicle: other 97 % of control

N#CSC/C(=N\Nc1ccc([N+](=O)[O-])cc1[N+](=O)[O-])c1ccccc1
inactive: endpoint: mean survival time, dose: 100.0 mg/kg/injection, schedule: Q04DX003 (ip), vehicle: saline sonified 103 % of control | endpoint: mean survival time, dose: 200.0 mg/kg/injection, schedule: Q04DX003 (ip), vehicle: saline sonified 102 % of control | endpoint: mean survival time, dose: 400.0 mg/kg/injection, schedule: Q04DX003 (ip), vehicle: saline sonified 103 % of control

COB1OB(OC)OB(OC)O1
inactive: [12] 90 % of control | [3] 93 % of control | [8] 93 % of control | [9] 93 % of control
